Results on 30 compounds are retold here after patent US10759813B2, “Neprilysin inhibitors” (THERAVANCE BIOPHARMA R&D IP, LLC, priority 2010, dated 2020).

Sequence of human neprilysin (EC 3.4.24.11; NEP) (P08473 52-750): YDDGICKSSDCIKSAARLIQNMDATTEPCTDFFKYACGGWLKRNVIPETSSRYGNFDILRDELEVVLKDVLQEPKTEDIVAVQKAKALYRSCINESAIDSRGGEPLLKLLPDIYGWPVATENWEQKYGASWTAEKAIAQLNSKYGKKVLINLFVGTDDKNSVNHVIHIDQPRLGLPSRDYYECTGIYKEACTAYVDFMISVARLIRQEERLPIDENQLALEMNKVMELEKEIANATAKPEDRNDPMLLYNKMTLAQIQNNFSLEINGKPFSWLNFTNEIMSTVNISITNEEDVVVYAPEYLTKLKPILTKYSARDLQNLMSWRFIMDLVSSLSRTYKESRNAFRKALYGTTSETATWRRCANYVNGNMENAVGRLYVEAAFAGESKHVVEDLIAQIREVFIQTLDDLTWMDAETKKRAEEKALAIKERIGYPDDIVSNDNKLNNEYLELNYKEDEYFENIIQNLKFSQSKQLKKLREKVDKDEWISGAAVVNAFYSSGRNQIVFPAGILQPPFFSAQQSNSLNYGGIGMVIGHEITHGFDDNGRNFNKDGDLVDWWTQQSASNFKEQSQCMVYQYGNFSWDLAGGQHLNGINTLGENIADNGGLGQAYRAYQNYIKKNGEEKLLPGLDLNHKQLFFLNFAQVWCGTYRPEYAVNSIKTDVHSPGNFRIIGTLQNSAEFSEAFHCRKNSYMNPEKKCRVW

This experiment has as its target human neprilysin (EC 3.4.24.11; NEP) (Homo sapiens (Human), UniProt P08473). Put plainly: In vitro enzyme inhibition assay at human NEP (fluorogenic peptide substrate). To be noted: pKi values at human NEP, recombinant human NEP. It counts as biochemical. An outline of the steps: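 pKi derived from apparent Ki fitted as v=v0/[1+(I/K′)] to Ex320/Em405 fluorescence. Compounds (pM to 10 μM) sat with recombinant human enzyme 30 min at 37 °C before 10 μM fluorogenic Mca peptide was added in HEPES pH 7.5 buffer with 10 μM ZnSO4; 20 min reaction, acetic acid quench.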
One may read the pKi as the negative decadic logarithm of the Ki, by convention in mol/L. As for `O=C(N[C@H](Cc1ccc(-c2ccccc2)cc1)C[C@@H](O)C(=O)O)c1cc(-c2cccnc2)[nH]n1` [Example 15-21, (2R,4R)-5-Biphenyl-4-yl-2-hydroxy-4-[(5-pyridin-3-yl-1H-pyrazole-3-carbonyl)-amino]-pentanoic acid], the pKi was no less than 9.0. What is called Ki is a dissociation constant, usually derived from enzyme kinetics or from competition with a known ligand. Regarding `O=C(N[C@H](Cc1ccc(-c2ccccc2)cc1)CC(O)C(=O)O)c1cc(-c2cnccn2)[nH]n1` (stereo partly drawn) [Example 15-22, (R)-5-Biphenyl-4-yl-2-hydroxy-4-[(5-pyrazin-2-yl-1H-pyrazole-3-carbonyl)amino]-pentanoic acid], the Ki was 1.26 to 10 nM. Still for that read-out and setting: next, `Cn1cc(-c2cc(C(=O)N[C@H](Cc3ccc(-c4ccccc4)cc3)CC(O)C(=O)O)n[nH]2)cn1` (stereo partly drawn) [Example 15-23, (R)-5-Biphenyl-4-yl-2-hydroxy-4-[(1′-methyl-2H, 1′H-[3,4′]bipyrazolyl-5-carbonyl)amino]-pentanoic acid]: 12.6 to 100 nM; `O=C(N[C@H](Cc1ccc(-c2ccccc2)cc1)CC(O)C(=O)O)c1cc(-c2ccccc2Cl)[nH]n1` (stereo partly drawn) [Example 15-24, (R)-5-Biphenyl-4-yl-4-{[5-(2-chlorophenyl)-1H-pyrazole-3-carbonyl]amino}-2-hydroxy-pentanoic acid]: 1.26 to 10 nM. `O=C(N[C@H](Cc1ccc(-c2ccccc2)cc1)C[C@@H](O)C(=O)O)c1cc(-c2cccc(Cl)c2)[nH]n1` [Example 15-25, (2R,4R)-5-Biphenyl-4-yl-4-{[5-(3-chlorophenyl)-1H-pyrazole-3-carbonyl]-amino}-2-hydroxy-pentanoic acid]: the pKi is given as no less than 9.0.

For the compound `O=C(N[C@H](Cc1ccc(-c2ccccc2)cc1)C[C@@H](O)C(=O)O)c1cc(-c2ccc(Cl)cc2Cl)[nH]n1` [Example 15-26, (2R,4R)-5-Biphenyl-4-yl-4-{[5-(2,4-dichlorophenyl)-1H-pyrazole-3-carbonyl]-amino}-2-hydroxy-pentanoic acid], the pKi is given as no less than 9.0.

Take `O=C(N[C@H](Cc1ccc(-c2ccccc2)cc1)C[C@@H](O)C(=O)O)c1cc(-c2cc(Cl)ccc2Cl)[nH]n1` [Example 15-27, (2R,4R)-5-Biphenyl-4-yl-4-{[5-(2,5-dichlorophenyl)-1H-pyrazole-3-carbonyl]-amino}-2-hydroxy-pentanoic acid]: the pKi was no less than 9.0. On the same count and under the same terms, as for `O=C(N[C@H](Cc1ccc(-c2ccccc2)cc1)C[C@@H](O)C(=O)O)c1cc(-c2ccccc2O)[nH]n1` [Example 15-28, (2R,4R)-5-Biphenyl-4-yl-2-hydroxy-4-{[5-(2-hydroxy-phenyl)-1H-pyrazole-3-carbonyl]-amino}-pentanoic acid], the figure is no less than 9.0; as for `O=C(N[C@H](Cc1ccc(-c2ccccc2)cc1)C[C@@H](O)C(=O)O)c1cc(-c2ccccc2O)n(CC(O)CO)n1` (stereo partly drawn) [Example 15-30, (2R,4R)-5-Biphenyl-4-yl-4-{[1-(2,3-dihydroxy-propyl)-5-(2-hydroxy-phenyl)-1H-pyrazole-3-carbonyl]-amino}-2-hydroxy-pentanoic acid], no less than 9.0. Turning to `CC(=O)Nc1cccc(-c2cc(C(=O)N[C@H](Cc3ccc(-c4ccccc4)cc3)CC(O)C(=O)O)n[nH]2)c1` (stereo partly drawn) [Example 15-31, (R)-4-{[5-(3-Acetylamino-phenyl)-1H-pyrazole-3-carbonyl]amino}-5-biphenyl-4-yl-2-hydroxypentanoic acid], the Ki was 1.26 to 10 nM. The same measure, in the same setting: next, `COc1ccccc1C(=O)Nc1cc(C(=O)N[C@H](Cc2ccc(-c3ccccc3)cc2)C[C@@H](O)C(=O)O)n[nH]1` [Example 15-32, (2R,4R)-5-Biphenyl-4-yl-2-hydroxy-4-{[5-(2-methoxy-benzoylamino)-1H-pyrazole-3-carbonyl]-amino}-pentanoic acid]: 1.26 to 10 nM. As for `O=C(N[C@H](Cc1ccc(-c2ccccc2)cc1)C[C@@H](O)C(=O)O)c1cc(-c2ccccc2)[nH]n1` [Example 15-33, (2R,4R)-5-Biphenyl-4-yl-2-hydroxy-4-[(5-phenyl-1H-pyrazole-3-carbonyl)-amino]-pentanoic acid], the pKi is given as no less than 9.0. For the compound `Cn1nc(C(=O)N[C@H](Cc2ccc(-c3ccccc3)cc2)CC(O)C(=O)O)cc1-c1ccccc1` (stereo partly drawn) [Example 15-34, (R)-5-Biphenyl-4-yl-2-hydroxy-4-[(1-methyl-5-phenyl-1H-pyrazole-3-carbonyl)amino]-pentanoic acid], the Ki was 1.26 to 10 nM. On to `O=C(O)Cn1nc(C(=O)N[C@H](Cc2ccc(-c3ccccc3)cc2)C[C@@H](O)C(=O)O)cc1-c1ccccc1` [Example 15-35, (2R,4R)-5-Biphenyl-4-yl-4-[(1-carboxymethyl-5-phenyl-1H-pyrazole-3-carbonyl)-amino]-2-hydroxy-pentanoic acid], for which the pKi is no less than 9.0.

As to `O=C(O)CCn1nc(C(=O)N[C@H](Cc2ccc(-c3ccccc3)cc2)C[C@@H](O)C(=O)O)cc1-c1ccccc1` [Example 15-36, (2R,4R)-5-Biphenyl-4-yl-4-{[1-(2-carboxy-ethyl)-5-phenyl-1H-pyrazole-3-carbonyl]-amino}-2-hydroxy-pentanoic acid], the Ki was 1.26 to 10 nM. For `O=C(N[C@H](Cc1ccc(-c2ccccc2)cc1)CC(O)C(=O)O)c1cc(-c2ccco2)[nH]n1` (stereo partly drawn) [Example 15-37, (R)-5-Biphenyl-4-yl-4-[(5-furan-2-yl-1H-pyrazole-3-carbonyl)amino]-2-hydroxy-pentanoic acid], the Ki is 1.26 to 10 nM. On the same count and under the same terms, next, `O=C(N[C@H](Cc1ccc(-c2ccccc2)cc1)CC(O)C(=O)O)c1cc(-c2ccc3ccccc3c2)[nH]n1` (stereo partly drawn) [Example 15-38, (R)-5-Biphenyl-4-yl-2-hydroxy-4-[(5-naphthalen-2-yl-1H-pyrazole-3-carbonyl)amino]-pentanoic acid]: 1.26 to 10 nM. For the compound `O=C(N[C@H](Cc1ccc(-c2ccccc2)cc1)CC(O)C(=O)O)c1cc(-c2ccc(-c3ccccc3)cc2)[nH]n1` (stereo partly drawn) [Example 15-39, (R)-5-Biphenyl-4-yl-4-[(5-biphenyl-4-yl-1H-pyrazole-3-carbonyl)amino]-2-hydroxy-pentanoic acid], the Ki is 12.6 to 100 nM. In the case of `O=C(N[C@H](Cc1ccc(-c2ccccc2)cc1)CC(O)C(=O)O)c1cc(-c2ccc(Cl)cc2)[nH]n1` (stereo partly drawn) [Example 15-40, (R)-5-Biphenyl-4-yl-4-{[5-(4-chlorophenyl)-1H-pyrazole-3-carbonyl]amino}-2-hydroxy-pentanoic acid], the Ki was 1.26 to 10 nM. Same read-out and setting: as for `O=C(N[C@H](Cc1ccc(-c2ccccc2)cc1)CC(O)C(=O)O)c1cc(C(=O)N2CCC(O)C2)n[nH]1` (stereo partly drawn) [Example 15-42, (R)-5-Biphenyl-4-yl-2-hydroxy-4-{[5-(3-hydroxypyrrolidine-1-carbonyl)-2H-pyrazole-3-carbonyl]-amino}-pentanoic acid], the figure is no more than 1 nM; as for `NC(=O)C1CCN(C(=O)c2cc(C(=O)N[C@H](Cc3ccc(-c4ccccc4)cc3)C[C@H](O)C(=O)O)[nH]n2)C1` (stereo partly drawn) [Example 15-44, (2S,4R)-5-Biphenyl-4-yl-4-{[5-(3-carbamoylpyrrolidine-1-carbonyl)-2H-pyrazole-3-carbonyl]-amino}-2-hydroxy-pentanoic acid], 1.26 to 10 nM. Turning to `NC(=O)C1CCN(C(=O)c2cc(C(=O)N[C@H](Cc3ccc(-c4ccccc4)cc3)C[C@@H](O)C(=O)O)[nH]n2)C1` (stereo partly drawn) [Example 15-46, (2R,4R)-5-Biphenyl-4-yl-4-{[5-(3-carbamoylpyrrolidine-1-carbonyl)-2H-pyrazole-3-carbonyl]-amino}-2-hydroxy-pentanoic acid], the pKi was no less than 9.0. On to `O=C(N[C@H](Cc1ccc(-c2ccccc2)cc1)C[C@@H](O)C(=O)O)c1cc(C(=O)N2CCC(O)CC2)n[nH]1` [Example 15-48, (2R,4R)-5-Biphenyl-4-yl-2-hydroxy-4-{[5-(4-hydroxypiperidine-1-carbonyl)-2H-pyrazole-3-carbonyl]-amino}-pentanoic acid], for which the pKi is reported as no less than 9.0.

With `O=C(N[C@H](Cc1ccc(-c2ccccc2)cc1)C[C@H](O)C(=O)O)c1cc(C(=O)N2CCC(O)CC2)n[nH]1` [Example 15-50, (2S,4R)-5-Biphenyl-4-yl-2-hydroxy-4-{[5-(4-hydroxypiperidine-1-carbonyl)-2H-pyrazole-3-carbonyl]-amino}-pentanoic acid], the Ki was 12.6 to 100 nM. In the case of `O=C(N[C@H](Cc1ccc(-c2ccccc2)cc1)CC(O)C(=O)O)c1cc(C(=O)N2CCOCC2)n[nH]1` (stereo partly drawn) [Example 15-53, (R)-5-Biphenyl-4-yl-2-hydroxy-4-{[5-(morpholine-4-carbonyl)-2H-pyrazole-3-carbonyl]amino}pentanoic acid], the Ki is 1.26 to 10 nM.

Consider `O=C(NC1CC1)c1cc(C(=O)N[C@H](Cc2ccc(-c3ccccc3)cc2)C[C@H](O)C(=O)O)[nH]n1` [Example 15-55, (2S,4R)-5-Biphenyl-4-yl-4-[(5-cyclopropylcarbamoyl-2H-pyrazole-3-carbonyl)-amino]-2-hydroxypentanoic acid], for which the Ki is 12.6 to 100 nM. Take `O=C(O)CNC(=O)c1cc(C(=O)N[C@H](Cc2ccc(-c3ccccc3)cc2)CC(O)C(=O)O)[nH]n1` (stereo partly drawn) [Example 15-56, (R)-5-Biphenyl-4-yl-4-{[5-(carboxymethyl-carbamoyl)-2H-pyrazole-3-carbonyl]-amino}-2-hydroxy-pentanoic acid]: the Ki is 1.26 to 10 nM. In the case of `O=C(NC1CC1)c1cc(C(=O)N[C@H](Cc2ccc(-c3ccccc3)cc2)C[C@@H](O)C(=O)O)[nH]n1` [Example 15-57, (2R,4R)-5-Biphenyl-4-yl-4-[(5-cyclopropylcarbamoyl-2H-pyrazole-3-carbonyl)-amino]-2-hydroxypentanoic acid], the pKi is no less than 9.0. As to `NC(=O)c1cc(C(=O)N[C@H](Cc2ccc(-c3ccccc3)cc2)CC(O)C(=O)O)[nH]n1` (stereo partly drawn) [Example 15-59, (R)-5-Biphenyl-4-yl-4-[(5-carbamoyl-2H-pyrazole-3-carbonyl)-amino]-2-hydroxy-pentanoic acid], the Ki is 1.26 to 10 nM. Regarding `CNC(=O)c1cc(C(=O)N[C@H](Cc2ccc(-c3ccccc3)cc2)C[C@@H](O)C(=O)O)[nH]n1` [Example 15-60, (2R,4R)-5-Biphenyl-4-yl-2-hydroxy-4-[(5-methylcarbamoyl-2H-pyrazole-3-carbonyl)-amino]pentanoic acid], the pKi is listed as no less than 9.0.
